In paper PMC3376186 (Bioorganic & medicinal chemistry letters, 2012):

Experiments:
[1] = test system: LXRβ; conditions: reporter-gene assay; reported; cited from earlier work
[2] = test system: RORα; conditions: same FRET assay; reported; cited from earlier work
[3] = test system: Rev-erbβ; conditions: Luminex technology; cited from earlier work
[4] = target: T1, Rev-erbα (Homo sapiens, UniProt P20393); conditions: Luminex technology; cited from earlier work
T1 sequence (P20393 1-614): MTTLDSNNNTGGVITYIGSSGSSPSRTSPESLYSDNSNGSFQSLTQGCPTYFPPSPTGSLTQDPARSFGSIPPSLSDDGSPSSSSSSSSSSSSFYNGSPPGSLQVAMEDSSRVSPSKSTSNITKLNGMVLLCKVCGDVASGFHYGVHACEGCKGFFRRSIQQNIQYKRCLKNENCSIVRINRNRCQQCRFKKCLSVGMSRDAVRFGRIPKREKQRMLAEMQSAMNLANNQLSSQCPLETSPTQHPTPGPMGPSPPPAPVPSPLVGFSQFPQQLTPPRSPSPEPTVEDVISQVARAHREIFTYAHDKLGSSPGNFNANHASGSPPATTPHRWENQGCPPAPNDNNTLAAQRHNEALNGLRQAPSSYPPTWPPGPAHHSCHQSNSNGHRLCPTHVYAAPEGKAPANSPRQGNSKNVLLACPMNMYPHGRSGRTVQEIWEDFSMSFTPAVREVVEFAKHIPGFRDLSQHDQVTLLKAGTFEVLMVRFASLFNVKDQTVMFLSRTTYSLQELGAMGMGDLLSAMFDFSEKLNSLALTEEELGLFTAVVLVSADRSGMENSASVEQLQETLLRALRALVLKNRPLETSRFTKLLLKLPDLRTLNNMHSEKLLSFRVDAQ

[5] = test system: FXR; conditions: same FRET assay; reported; cited from earlier work
[6] = Mouse plasma and brain exposure after IP dose; format: in vivo, C57Bl6 mice
[7] = test system: LRH1; conditions: same FRET assay; reported; cited from earlier work
[8] = test system: Rev-erbα-NCoR interaction; conditions: read-out: EC50, enhancement of Rev-erbα-NCoR interaction; FRET assay; cited from earlier work
[9] = test system: LXRα; conditions: reporter-gene assay; reported; cited from earlier work
[10] = test system: SF1; conditions: same FRET assay; reported; cited from earlier work
[11] = test system: REV-ERB ligand binding domain (LBD) β; conditions: HEK293 cells, Gal4 DBD:REV-ERB LBD β; cited from earlier work
[12] = target: T1, Rev-erbα; conditions: circular dichroism analysis; cited from earlier work
[13] = target: T1, Rev-erbα; conditions: HEK293 cells, Gal4 DBD:REV-ERB LBD α; cited from earlier work

In the case of `CC(C)(C)OC(=O)CN(Cc1ccc(Cl)cc1)Cc1ccc([N+](=O)[O-])s1` [Compound 1], the “activity on LXRβ” value [1] is given as “no activity”, the “activity on RORα” value [2] is given as “no activity” and the “interaction of Rev-erbβ with the NCoR peptide” value [3] is given as “dose-dependently increased”. For the same compound, the “interaction of Rev-erbα with the NCoR peptide” value [4] was “dose-dependently increased”, the “activity on FXR” value [5] was “no activity” and the “b.p. (brain penetration)” value ([6]; mice, 10 mg/kg IP in 10:10:80 DMSO:Tween:water, t = 2h) was 140%. For the same compound, the “activity on LRH1” value [7] was “no activity”, the EC50 [8] was 400 nM and the “activity on LXRα” value [9] was “no activity”. The “activity on SF1” value [10] was “no activity”.
In the case of `CCOC(=O)N1CCC(CN(Cc2ccc(Cl)cc2)Cc2ccc([N+](=O)[O-])s2)C1` (stereo not drawn) [Compound 12e], the “Rev-erb-dependent repressor activity (LBD β)” value [11] is given as “dose-dependently increased”, the “Direct binding to Rev-erbα” value [12] is given as “confirmed” and the “[Brain]” value ([6]; mice, 50 mg/kg IP in 15% cremaphor EL, brain levels at 8h) is given as “^d8.7 μM”. The “Rev-erb-dependent repressor activity (LBD α)” value [13] was “dose-dependently increased”.
In the case of `CS(=O)(=O)N1CCC(CN(Cc2ccc(Cl)cc2)Cc2ccc([N+](=O)[O-])s2)C1` (stereo not drawn) [Compound 12j], the Kp at 2 h ([6]; C57Bl6, mouse, brain, ip, 10 mg/kg) is reported as 2.42.
